Measurements taken from ChEMBL document CHEMBL4627306, “Novel cilengitide-based cyclic RGD peptides as αvβ3 integrin inhibitors” (Bioorg Med Chem Lett, 2020).
The source made the active and inactive calls. The rule behind the calls is not given here.

Experiments:
[1] = molecular target: Integrin alpha-V/beta-3 (Homo sapiens, UniProt P05106+P06756); assay: Inhibition of vitronectin binding to recombinant human integrin alphaV (Phe31 to Val992 residues) beta3 (Gly27 to Asp718 residues) expressed in CHO cells by ELISA based solid phase binding assay; format: cell-based
[2] = molecular target: Integrin alpha-V/beta-5 (Homo sapiens, UniProt P06756+P18084); assay: Inhibition of vitronectin binding to recombinant human integrin alphaV (Phe31 to Val992 residues) beta5 (Gly24 to Asn719 residues) expressed in CHO cells by ELISA based solid phase binding assay; format: cell-based
[3] = molecular target: Integrin alpha-V/beta-6 (Homo sapiens, UniProt P06756+P18564); assay: Inhibition of latency-associated peptide/TGF-beta binding to recombinant human integrin alphaV (Phe31 to Val992 residues) beta6 (Gly22 to Asn707 residues) expressed in CHO cells by ELISA based solid phase binding assay; format: cell-based
[4] = molecular target: Integrin alpha-V/beta-8 (Homo sapiens, UniProt P06756+P26012); assay: Inhibition of latency-associated peptide/TGF-beta binding to recombinant human integrin alphaV (Phe31 to Val992 residues) beta8 (Glu43 to Arg684 residues) expressed in CHO cells by ELISA based solid phase binding assay; format: cell-based
[5] = molecular target: Integrin alpha-5/beta-1 (Homo sapiens, UniProt P05556+P08648); assay: Inhibition of fibronectin binding to recombinant human integrin alpha5 (Phe42 to Tyr995 residues) beta1 (Gln21 to Asp728 residues) expressed in CHO cells by ELISA based solid phase binding assay; format: cell-based
[6] = molecular target: Integrin alpha-IIb/beta-3 (Homo sapiens, UniProt P05106+P08514); assay: Inhibition of fibrinogen binding to human platelet integrin alpha2b beta3 by ELISA based solid phase binding assay
[7] = test system: HUVEC; assay: Antiproliferative activity against HUVEC assessed as effect on cell viability up to 30 uM after 24 hrs by trypan blue assay; format: functional, cell-based; settings: Homo sapiens
[8] = test system: HUVEC; assay: Inhibition of tube formation in HUVEC up to 30 uM after 24 hrs […]; format: functional, cell-based; settings: Homo sapiens

Structure (SMILES) | IC50 [1] [nM] | IC50 [2] [nM] | IC50 [3] [nM] | IC50 [4] [nM] | IC50 [5] [nM] | IC50 [6] [nM] | Activity [7] | inhibition [8]
CC1(C)NC(=O)[C@@H](Cc2ccccc2)NC(=O)[C@H](CC(=O)O)NC(=O)CNC(=O)[C@H](CCCNC(=N)N)NC1=O | 5.5 | 50 | 378 | 806 | 141 | > 10000 | inactive | inactive
N=C(N)NCCC[C@@H]1NC(=O)C2(CCCCC2)NC(=O)[C@@H](Cc2ccccc2)NC(=O)[C@H](CC(=O)O)NC(=O)CNC1=O | 3.3 | 63 | 608 | 1500 | 87.8 | > 10000 | inactive | inactive
C[Si]1(C)C[C@@H]2C(=O)N[C@@H](CCCNC(=N)N)C(=O)NCC(=O)NC(CC(=O)O)C(=O)NC(Cc3ccccc3)C(=O)N2C1 (single isomer, unassigned) | 11 | 66 | 178 | 319 | 1080 | > 10000 | inactive | inactive

Further compounds by falling IC50 [1], results first:

IC50 [1] [nM] | IC50 [2] [nM] | IC50 [3] [nM] | IC50 [4] [nM] | IC50 [5] [nM] | IC50 [6] [nM] | Structure (SMILES) | Activity [7] | inhibition [8]
72 | 4930 | 709 | 6880 | 921 | 4860 | COc1c2cccc1C(=O)N[C@@H](CCCNC(=N)N)C(=O)NCC(=O)N[C@@H](CC(=O)O)C(=O)N[C@H](Cc1ccccc1)C(=O)N2 | inactive | inactive
9.9 | 303 | 1970 | 3950 | 623 | 657 | N=C(N)NCCC[C@@H]1NC(=O)CC2(CCCCC2)CNC(=O)[C@@H](Cc2ccccc2)NC(=O)[C@H](CC(=O)O)NC(=O)CNC1=O | inactive | inactive
